The values below come from patent publication US20240390340A1 (INCYTE CORPORATION, priority 2023, published 2024).

For orientation: IC50 means the concentration that inhibits the measured activity by half.

The target of one assay is KRAS G12V (Homo sapiens, UniProt P01116, G12V). Kind of assay: GDP-GTP exchange assay (bodipy-GDP/GppNHp, SOS1), KRAS G12V. Format: biochemical. The note with it: KRAS G12V mutant; value for the most potent isomer quoted for certain compounds; read-out: G12V (KRAS G12V exchange assay IC50). On the procedure: (§1) The inhibitor potency of the exemplified compounds was determined in a fluorescence based guanine nucleotide exchange assay, which measures the exchange of bodipy-GDP (fluorescently labeled GOP) for GppNHp (Non-hydrolyzable GTP analog) to generate the active state of KRAS in the presence of SOS1 (guanine nucleotide exchange factor). Inhibitors were serially diluted in DMSO and a volume of 0.1 μL was transferred to the wells of a black low volume 384-well plate. 5 μL/well volume of bodipy-loaded KRAS G12D diluted to 2.5 nM in assay buffer (25 mM Hepes pH 7.5, 50 mM NaCl, 10 mM MgCl2 and 0.01% Brij-35) was added to the plate and pre-incubated with inhibitor for 4 h at r.t. Appropriate controls (enzyme with no inhibitor or with a G12D inhibitor) were included on the plate. The exchange was initiated by the addition of a 5 μL/well volume containing 1 mM GppNHp and 300 nM SOS1 in assay buffer. The 10 μL/well reaction concentration of the bodipy-loaded KRAS G12D, GppNHp, and SOS1 were 2.5 nM, 500 μM, and 150 nM, respectively. The reaction plates were incubated at r.t. for 2 h, a time estimated for complete GDP-GTP exchange in the absence of inhibitor. For the KRAS G12V mutant, similar guanine nucleotide exchange assays were used with 2.5 nM as final concentration for the bodipy loaded KRAS proteins and 3 h incubation after adding GppNHp-SOS1 mixture. A cyclic peptide described to selectively bind G12D mutant (Sakamoto et al., BBRC 484.3 (2017), 605-611) or internal compounds with confirmed binding were used as positive controls in the assay plates. Fluorescence intensities were measured on a PheraStar plate reader instrument (BMG Labtech) with excitation at 485 nm and emission at 520 nm.
(§2) Either GraphPad prism or Genedata Screener SmartFit was used to analyze the data. The IC50 values were derived by fitting the data to a four parameter logistic equation producing a sigmoidal dose-response curve with a variable Hill coefficient.
(§3) The symbol “†” indicates IC50≤100 nM, “††” indicates IC50>100 nM but ≤1 μM; and “†††” indicates IC50 is >1 μM but ≤5 μM, “††††” indicates IC50 is >5 μM but ≤10 μM. “NA” indicates IC50 not available.

A further assay deals with KRAS G12D (Homo sapiens, UniProt P01116, G12D). Kind of assay: GDP-GTP exchange assay (bodipy-GDP/GppNHp, SOS1), KRAS G12D. Format: biochemical. The note with it: bodipy-loaded KRAS G12D 2.5 nM, 4 h pre-incubation; value for the most potent isomer quoted for certain compounds; read-out: G12D (KRAS G12D exchange assay IC50). On the procedure: as §1, §2, §3
Chain of KRAS G12D (P01116 1-188 isoform P01116-2 G12D): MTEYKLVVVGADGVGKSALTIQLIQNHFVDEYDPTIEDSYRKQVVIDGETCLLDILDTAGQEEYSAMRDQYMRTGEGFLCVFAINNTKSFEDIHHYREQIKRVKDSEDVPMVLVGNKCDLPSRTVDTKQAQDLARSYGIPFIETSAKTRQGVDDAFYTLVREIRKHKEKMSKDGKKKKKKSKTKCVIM

Chain of KRAS G12V (P01116 1-188 isoform P01116-2 G12V): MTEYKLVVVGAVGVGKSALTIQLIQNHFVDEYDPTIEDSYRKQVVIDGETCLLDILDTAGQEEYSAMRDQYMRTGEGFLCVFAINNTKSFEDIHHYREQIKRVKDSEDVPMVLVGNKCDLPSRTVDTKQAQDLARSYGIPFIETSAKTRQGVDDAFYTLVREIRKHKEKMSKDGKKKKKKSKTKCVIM

Regarding `C#Cc1ccc(O[C@H]2C[C@H](c3cc4c(C)nc5c(F)c(-c6cccc(Cl)c6Cl)c(CCC#N)cc5c4n3[C@H]3[C@H]4CN[C@@H]3C4)N(C(=O)C3CC3)C2)nc1` [Example 305], the IC50 on KRAS G12V and on KRAS G12D was no more than 100 nM throughout.

Take `Cc1nc2c(F)c(-c3cccc(Cl)c3Cl)c(CCC#N)cc2c2c1cc([C@H]1C[C@H](OCc3c(F)cccc3F)CN1C(=O)c1ccccc1)n2[C@H]1[C@H]2CN[C@@H]1C2` [Example 195]: the IC50 on KRAS G12V was no more than 100 nM; at KRAS G12D, 100 to 1000 nM.

For `Cc1nc2c(F)c(-c3cccc(Cl)c3Cl)c(CCC#N)cc2c2c1cc([C@H]1C[C@H](n3cc(CN4CCOCC4=O)nn3)CN1C(=O)C1CC1)n2[C@H]1[C@H]2CN[C@@H]1C2` [Example 323], the IC50 at KRAS G12V and at KRAS G12D was no more than 100 nM in each case.

Consider `Cc1nc2c(F)c(-c3cccc(Cl)c3Cl)c(CCC#N)cc2c2c1cc([C@H]1C[C@H](n3cnc(C4CC4)n3)CN1C(=O)C1CC1)n2[C@H]1[C@H]2CN[C@@H]1C2` [Example 278], for which the IC50 at KRAS G12V and on KRAS G12D was no more than 100 nM in each case.

In the case of `[2H]C([2H])(O[C@H]1C[C@H](c2cc3c(C)nc4c(F)c(-c5cccc(Cl)c5Cl)c(CCC#N)cc4c3n2[C@H]2[C@H]3CN[C@@H]2C3)N(C(=O)C2CC2)C1)c1cc(C)sn1` [Example 229], the IC50 on KRAS G12V and at KRAS G12D was no more than 100 nM each time.

As for `Cc1nc2c(F)c(-c3cccc(Cl)c3Cl)c(CCC#N)cc2c2c1cc([C@H]1C[C@H](Oc3cnccn3)CN1C(=O)C1CC1)n2[C@H]1[C@H]2CN[C@@H]1C2` [Example 137], the IC50 on KRAS G12V and on KRAS G12D was no more than 100 nM throughout.

`Cc1cccc(O[C@H]2C[C@H](c3cc4c(C)nc5c(F)c(-c6cccc(Cl)c6Cl)c(CCC#N)cc5c4n3[C@H]3C4CNC3C4)N(C(=O)C3CC3)C2)c1` (some centres unmarked) [Example 134]: the concentration for half-maximal inhibition (IC50) at KRAS G12V and on KRAS G12D was no more than 100 nM in each case.

As for `Cc1nc2c(F)c(-c3cccc(Cl)c3Cl)c(CCC#N)cc2c2c1cc([C@H]1C[C@H](OC3CCOC3)CN1C(=O)C1CC1)n2[C@H]1[C@H]2CN[C@@H]1C2` (some centres unmarked) [Example 364], the IC50 on KRAS G12V and at KRAS G12D was no more than 100 nM each time.

In the case of `Cc1nc2c(F)c(-c3cccc(Cl)c3Cl)c(CCC#N)cc2c2c1cc([C@H]1C[C@H](Oc3cccc(OC(F)(F)F)c3)CN1C(=O)C1CC1)n2[C@H]1[C@H]2CN[C@@H]1C2` [Example 171], the IC50 on KRAS G12V and on KRAS G12D was no more than 100 nM throughout.

On to `Cc1csnc1C(C)O[C@H]1C[C@H](c2cc3c(C)nc4c(F)c(-c5cccc(Cl)c5Cl)c(CCC#N)cc4c3n2[C@H]2[C@H]3CN[C@@H]2C3)N(C(=O)C2CC2)C1` (some centres unmarked) [Example 330], for which the IC50 on KRAS G12V and at KRAS G12D was no more than 100 nM each time.

`CN1CC=C(c2nc3c(F)c(-c4cccc(Cl)c4Cl)c(CCC#N)cc3c3c2cc([C@H]2C[C@H](OCc4c(F)cccc4F)CN2C(=O)C2CC2)n3[C@H]2[C@H]3CN[C@@H]2C3)CC1` [Example 219]: the IC50 on KRAS G12V and at KRAS G12D was no more than 100 nM each time.

On to `Cc1nc2c(F)c(-c3cccc(Cl)c3Cl)c(CCC#N)cc2c2c1cc([C@H]1C[C@H](n3cc(Cc4ccccc4)nn3)CN1C(=O)C1CC1)n2[C@H]1[C@H]2CN[C@@H]1C2` [Example 145], for which the IC50 on KRAS G12V and on KRAS G12D was no more than 100 nM in each case.

With `Cc1nc2c(F)c(-c3cccc(Cl)c3Cl)c(CCC#N)cc2c2c1cc([C@H]1C[C@H](Oc3ccnc(N4CC(C(F)F)C4)c3)CN1C(=O)C1CC1)n2[C@H]1[C@H]2CN[C@@H]1C2` [Example 370], the IC50 at KRAS G12V and on KRAS G12D was no more than 100 nM each time.

With `Cc1ccn([C@H]2C[C@H](c3cc4c(C)nc5c(F)c(-c6cccc(Cl)c6Cl)c(CCC#N)cc5c4n3[C@H]3[C@H]4CN[C@@H]3C4)N(C(=O)C3CC3)C2)n1` [Example 315], the 50% inhibitory concentration (IC50) on KRAS G12V and on KRAS G12D was no more than 100 nM each time.

For `Cc1nc2c(F)c(-c3cccc(Cl)c3Cl)c(CCC#N)cc2c2c1cc([C@H]1C[C@H](OCc3cncn3C)CN1C(=O)C1CC1)n2[C@H]1[C@H]2CN[C@@H]1C2` [Example 108], the IC50 at KRAS G12V and on KRAS G12D was no more than 100 nM throughout.

`Cc1nc2c(F)c(-c3cccc(Cl)c3Cl)c(CCC#N)cc2c2c1cc([C@H]1C[C@H](Oc3cnn(C(F)F)c3)[C@@H](C)N1C(=O)C1CC1)n2[C@H]1[C@H]2CN[C@@H]1C2` [Example 214]: the IC50 on KRAS G12V and on KRAS G12D was no more than 100 nM throughout.

For `Cc1nc2c(F)c(-c3cccc(Cl)c3Cl)c(CCC#N)cc2c2c1cc([C@H]1C[C@H](Oc3cncc4c3OCCC4)CN1C(=O)C1CC1)n2[C@H]1[C@H]2CN[C@@H]1C2` [Example 289], the half-inhibitory concentration (IC50) on KRAS G12V and on KRAS G12D was no more than 100 nM throughout.

On to `Cc1nc2c(F)c(-c3cccc(Cl)c3Cl)c(CCC#N)cc2c2c1cc([C@H]1C[C@H](n3cc(CCC(=O)O)nn3)CN1C(=O)C1CC1)n2[C@H]1[C@H]2CN[C@@H]1C2` [Example 322], for which the IC50 on KRAS G12V and on KRAS G12D was no more than 100 nM each time.

Take `Cc1nc2c(F)c(-c3cccc(Cl)c3Cl)c(CCC#N)cc2c2c1cc([C@H]1C[C@H](OCc3ccncc3)CN1C(=O)C1CC1)n2[C@H]1[C@H]2CN[C@@H]1C2` [Example 96]: the half-inhibitory concentration (IC50) at KRAS G12V and on KRAS G12D was no more than 100 nM each time.

Regarding `CCc1cccc(O[C@H]2C[C@H](c3cc4c(C)nc5c(F)c(-c6cccc(Cl)c6Cl)c(CCC#N)cc5c4n3[C@H]3[C@H]4CN[C@@H]3C4)N(C(=O)C3CC3)C2)c1` [Example 167], the IC50 on KRAS G12V and at KRAS G12D was no more than 100 nM throughout.

Consider `COC1CN(c2ccnc(O[C@H]3C[C@H](c4cc5c(C)nc6c(F)c(-c7cccc(Cl)c7Cl)c(CCC#N)cc6c5n4[C@H]4[C@H]5CN[C@@H]4C5)N(C(=O)C4CC4)C3)c2)C1` [Example 367], for which the IC50 on KRAS G12V and at KRAS G12D was no more than 100 nM in each case.

Consider `Cc1nc2c(F)c(-c3cccc(Cl)c3Cl)c(CCC#N)cc2c2c1cc([C@H]1C[C@H](OCc3cnnn3C)CN1C(=O)C1CC1)n2[C@H]1[C@H]2CN[C@@H]1C2` [Example 106], for which the IC50 at KRAS G12V and on KRAS G12D was no more than 100 nM throughout.

In the case of `Cc1cccc(CO[C@H]2C[C@H](c3cc4c(C)nc5c(F)c(-c6cccc(Cl)c6Cl)c(CCC#N)cc5c4n3[C@H]3[C@H]4CN[C@@H]3C4)N(C(=O)C3CC3)C2)c1` [Example 91], the IC50 at KRAS G12V and on KRAS G12D was no more than 100 nM each time.

Regarding `Cc1nc2c(F)c(-c3cccc(Cl)c3Cl)c(CCC#N)cc2c2c1cc([C@H]1C[C@H](Oc3cccnc3N3CCOCC3)CN1C(=O)C1CC1)n2[C@H]1[C@H]2CN[C@@H]1C2` [Example 284], the IC50 on KRAS G12V and on KRAS G12D was no more than 100 nM throughout.

Turning to `Cc1nc2c(F)c(-c3cccc(Cl)c3Cl)c(CCC#N)cc2c2c1cc([C@H]1C[C@H](OCc3cccnc3C(F)(F)F)CN1C(=O)C1CC1)n2[C@H]1[C@H]2CN[C@@H]1C2` [Example 268], the IC50 at KRAS G12V and on KRAS G12D was no more than 100 nM in each case.

As for `Cc1nc2c(F)c(-c3cccc(Cl)c3Cl)c(CCC#N)cc2c2c1cc([C@H]1C[C@H](Oc3ccn(CC(F)(F)F)n3)CN1C(=O)C1CC1)n2[C@H]1[C@H]2CN[C@@H]1C2` [Example 411], the IC50 at KRAS G12V and at KRAS G12D was no more than 100 nM each time.

Regarding `Cc1nc2c(F)c(-c3cccc(Cl)c3Cl)c(CCC#N)cc2c2c1cc([C@H]1C[C@H](OCc3ccccn3)[C@@H](C)N1C(=O)C1CC1)n2[C@H]1[C@H]2CN[C@@H]1C2` [Example 243], the IC50 on KRAS G12V and at KRAS G12D was no more than 100 nM in each case.

With `Cc1nc2c(F)c(-c3cccc(Cl)c3Cl)c(CCC#N)cc2c2c1cc([C@H]1C[C@H](n3cc(Cn4ccccc4=O)nn3)CN1C(=O)C1CC1)n2[C@H]1[C@H]2CN[C@@H]1C2` [Example 324], the IC50 at KRAS G12V and on KRAS G12D was no more than 100 nM in each case.

In the case of `Cc1nc2c(F)c(-c3cccc(Cl)c3Cl)c(CCC#N)cc2c2c1cc([C@H]1C[C@H](Oc3ccccc3F)CN1C(=O)C1CC1)n2[C@H]1[C@H]2CN[C@@H]1C2` [Example 119], the half-maximal inhibitory concentration (IC50) at KRAS G12V and at KRAS G12D was no more than 100 nM in each case.

With `Cc1nc2c(F)c(-c3cccc(Cl)c3Cl)c(CCC#N)cc2c2c1cc([C@H]1C[C@H](OC[C@H]3C[C@H](C#N)C3)CN1C(=O)C1CC1)n2[C@H]1[C@H]2CN[C@@H]1C2` [Example 402], the IC50 on KRAS G12V and at KRAS G12D was no more than 100 nM throughout.

In the case of `CCc1nnn([C@H]2C[C@H](c3cc4c(C)nc5c(F)c(-c6cccc(Cl)c6Cl)c(CCC#N)cc5c4n3[C@H]3[C@H]4CN[C@@H]3C4)N(C(=O)C3CC3)C2)c1-c1ccccc1` [Example 392], the IC50 at KRAS G12V and at KRAS G12D was no more than 100 nM in each case.
